What was measured:
[1] = XueBiJing compounds; cited from earlier work
[2] = tested on: CYP3A4; conditions: higher concentrations; range over the named compounds and enzymes
[3] = tested on: CYP2B6; test: CYP2B6 induction by XueBiJing compounds in cryopreserved human hepatocytes; format: in vitro ADME; conditions: higher concentrations; range over the named compounds and enzymes
[4] = molecular target: T1, OATP1B3 (Homo sapiens, UniProt Q9NPD5); test: in vitro
T1 sequence (Q9NPD5 1-702): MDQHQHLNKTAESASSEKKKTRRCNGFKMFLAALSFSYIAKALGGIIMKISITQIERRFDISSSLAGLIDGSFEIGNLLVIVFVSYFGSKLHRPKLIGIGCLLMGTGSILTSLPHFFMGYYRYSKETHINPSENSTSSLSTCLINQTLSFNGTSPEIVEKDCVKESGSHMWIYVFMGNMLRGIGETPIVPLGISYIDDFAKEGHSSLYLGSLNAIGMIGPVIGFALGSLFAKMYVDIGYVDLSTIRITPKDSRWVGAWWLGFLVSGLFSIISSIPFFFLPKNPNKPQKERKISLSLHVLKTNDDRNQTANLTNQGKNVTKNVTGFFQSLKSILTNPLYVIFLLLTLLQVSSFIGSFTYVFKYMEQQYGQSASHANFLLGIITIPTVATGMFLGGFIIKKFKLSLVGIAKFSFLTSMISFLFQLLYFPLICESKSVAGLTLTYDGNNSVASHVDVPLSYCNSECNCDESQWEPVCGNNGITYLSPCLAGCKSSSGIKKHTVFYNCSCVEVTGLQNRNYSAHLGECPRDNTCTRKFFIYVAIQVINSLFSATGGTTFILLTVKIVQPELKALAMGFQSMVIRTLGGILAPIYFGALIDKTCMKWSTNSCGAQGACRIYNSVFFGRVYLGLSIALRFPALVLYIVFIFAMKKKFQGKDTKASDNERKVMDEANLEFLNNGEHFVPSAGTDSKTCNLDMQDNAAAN

[5] = molecular target: T2, UGT2B15 (Homo sapiens, UniProt P54855); test: UGT2B15 inhibition by XueBiJing compounds, cDNA-expressed enzyme [SENI→S7G]; format: in vitro ADME
T2 sequence (P54855 24-530): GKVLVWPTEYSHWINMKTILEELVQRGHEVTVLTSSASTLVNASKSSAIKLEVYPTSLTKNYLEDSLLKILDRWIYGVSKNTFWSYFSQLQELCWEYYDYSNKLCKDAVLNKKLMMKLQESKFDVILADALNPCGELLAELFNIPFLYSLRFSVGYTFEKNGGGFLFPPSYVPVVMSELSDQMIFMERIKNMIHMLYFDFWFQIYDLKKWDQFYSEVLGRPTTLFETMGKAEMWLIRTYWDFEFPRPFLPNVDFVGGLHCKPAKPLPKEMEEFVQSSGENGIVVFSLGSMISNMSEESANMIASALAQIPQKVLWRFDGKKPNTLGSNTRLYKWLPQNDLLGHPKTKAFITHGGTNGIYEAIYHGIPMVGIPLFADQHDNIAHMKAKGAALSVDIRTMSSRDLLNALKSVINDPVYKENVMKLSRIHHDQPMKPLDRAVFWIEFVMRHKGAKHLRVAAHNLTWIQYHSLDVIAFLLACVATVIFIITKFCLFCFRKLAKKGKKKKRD

[6] = XueBiJing compounds, cited from earlier work
[7] = molecular target: T3, UGT1A6 (Homo sapiens, UniProt P19224); test: UGT1A6 inhibition by XueBiJing compounds, cDNA-expressed enzyme [4-MU→4-MUG]; format: in vitro ADME
T3 sequence (P19224 27-532): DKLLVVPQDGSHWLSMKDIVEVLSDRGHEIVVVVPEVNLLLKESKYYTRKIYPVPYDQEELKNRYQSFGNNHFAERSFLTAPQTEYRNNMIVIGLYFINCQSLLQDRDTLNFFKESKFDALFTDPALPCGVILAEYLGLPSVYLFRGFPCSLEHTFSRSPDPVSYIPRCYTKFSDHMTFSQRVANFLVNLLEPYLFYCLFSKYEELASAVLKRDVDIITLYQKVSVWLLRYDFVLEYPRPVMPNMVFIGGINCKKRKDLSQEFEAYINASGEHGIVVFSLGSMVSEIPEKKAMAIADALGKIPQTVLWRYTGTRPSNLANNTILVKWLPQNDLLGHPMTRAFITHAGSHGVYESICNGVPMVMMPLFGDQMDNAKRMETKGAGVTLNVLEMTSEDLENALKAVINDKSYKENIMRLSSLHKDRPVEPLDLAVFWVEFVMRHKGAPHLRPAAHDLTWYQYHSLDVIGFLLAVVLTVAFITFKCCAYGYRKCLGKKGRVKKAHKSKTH

[8] = molecular target: CYP2C9 (Homo sapiens, UniProt P11712); test: CYP2C9 inhibition by XueBiJing compounds, cDNA-expressed enzyme [MFC→HFC]; format: in vitro ADME
Chain of CYP2C9 (P11712 whole entry): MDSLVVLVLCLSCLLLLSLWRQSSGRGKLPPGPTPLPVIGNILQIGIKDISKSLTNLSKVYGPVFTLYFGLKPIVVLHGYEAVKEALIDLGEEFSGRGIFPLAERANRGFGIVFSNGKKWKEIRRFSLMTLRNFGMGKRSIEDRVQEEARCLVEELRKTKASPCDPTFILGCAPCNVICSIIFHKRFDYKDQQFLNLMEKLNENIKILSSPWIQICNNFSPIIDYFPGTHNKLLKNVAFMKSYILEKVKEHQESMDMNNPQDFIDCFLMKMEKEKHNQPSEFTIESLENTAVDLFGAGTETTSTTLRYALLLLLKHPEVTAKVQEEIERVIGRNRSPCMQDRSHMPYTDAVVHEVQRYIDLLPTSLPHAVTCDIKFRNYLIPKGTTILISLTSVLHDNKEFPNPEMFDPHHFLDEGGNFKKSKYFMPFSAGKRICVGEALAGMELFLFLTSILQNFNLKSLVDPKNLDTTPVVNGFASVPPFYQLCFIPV

[9] = tested on: human drug metabolizing enzymes and transporters; test: Inhibitory DDI index of XueBiJing compounds as perpetrators; conditions: XueBiJing at label dose; range over the named compounds

mRNA-T/U ratio, CYP3A4 [2]: 4.0 to 9.6
mRNA-T/U ratio, CYP2B6 [3]: 4.0 to 9.6
inhibition at 100 μmol/L [4]: > 50%
IC50 [5]: 92 ± 25 µM
inhibition at 100 μmol/L ([5]; human, cDNA-expressed UGT2B15): 55%
IC50 [7]: 15 ± 1 µM
inhibition at 100 μmol/L ([7]; human, cDNA-expressed UGT1A6, probe 4-MU (100 μmol/L), 4-MUG formed): > 90%
IC50 [8]: 75 ± 13 µM
inhibition at 100 μmol/L ([8]; human, cDNA-expressed CYP2C9, probe MFC (75 μmol/L)): 68 to 80%
DDI index for inhibition of CYP2C9, CYP2C19, OATP1B1, OATP1B3, OAT1 and/or OAT3 [9]: 0.00003–0.06
Compound: O=C(/C=C/c1ccc(O)c2c1[C@H](C(=O)O[C@H](Cc1ccc(O)c(O)c1)C(=O)O)[C@@H](c1ccc(O)c(O)c1)O2)O[C@H](Cc1ccc(O)c(O)c1)C(=O)O [X10, salvianolic acid B]
Membrane permeability [1]: Poor
pKa [6]: 2.8
LogD(7.4) ([6]; pH 7.4): −2.8

From article PMC6804443 (Acta Pharmaceutica Sinica. B, 2019)
